Measured values reported in patent USRE40086E1, “Method for treating bacterial infection with novel 7-substituted-9-substituted amino 6-demethyl-6-deoxytetracyclines” (Wyeth Holdings Corporation, priority 1991, dated 2008).
In brackets after ≈: the same amount, converted by molar mass.

Columns and labels:
Experiment in all cases: MIC, agar dilution
Type in all cases: cell-based
E. faecalis ATCC 29212 = conditions: E. faecalis ATCC 29212
E. faecalis 12201 = conditions: E. faecalis 12201
[1] = test system: S. aureus IVES 2943 (meth. resistant); conditions: S. aureus IVES 2943 (meth. resistant)
E. coli UBMS 88-1 (tetB) = conditions: E. coli UBMS 88-1 (tetB)
[2] = test system: S. aureus Smith (Sensitive); conditions: S. aureus Smith (Sensitive)
[3] = test system: S. aureus ATCC 29213 (Sensitive); conditions: S. aureus ATCC 29213 (Sensitive)
E. coli ATCC 25922 = conditions: E. coli ATCC 25922
[4] = test system: S. aureus UBMS 88-4 (Sensitive); conditions: S. aureus UBMS 88-4 (Sensitive)
[5] = test system: S. aureus UBMS 88-7 (tetK); conditions: S. aureus UBMS 88-7 (tetK)
[6] = test system: E. coli UBMS 88-2 (Sensitive); conditions: E. coli UBMS 88-2 (Sensitive)
[7] = test system: S. aureus UBMS 88-5 (tetM); conditions: S. aureus UBMS 88-5 (tetM)
[8] = test system: S. haemolyticus AVAH 88-3; conditions: S. haemolyticus AVAH 88-3
[9] = test system: S. aureus UBMS 90-3 (Sensitive); conditions: S. aureus UBMS 90-3 (Sensitive)
[10] = test system: S. aureus UBMS 90-2 (tetM); conditions: S. aureus UBMS 90-2 (tetM)
[11] = test system: E. coli UBMS 89-2 (Sensitive); conditions: E. coli UBMS 89-2 (Sensitive)
[12] = test system: S. aureus UBMS 90-1 (tetM); conditions: S. aureus UBMS 90-1 (tetM)
[13] = test system: S. aureus IVES 1983 (meth. resistant); conditions: S. aureus IVES 1983 (meth. resistant)
E. coli UBMS 89-1 (tetM) = conditions: E. coli UBMS 89-1 (tetM)

Row | SMILES | MIC (E. faecalis ATCC 29212) | MIC (E. faecalis 12201) | MIC [1] | MIC (E. coli UBMS 88-1 (tetB)) | MIC [2] | MIC [3] | MIC (E. coli ATCC 25922) | MIC [4] | MIC [5] | MIC [6] | MIC [7] | MIC [8] | MIC [9] | MIC [10] | MIC [11] | MIC [12] | MIC [13] | MIC (E. coli UBMS 89-1 (tetM))
1 | CC(=O)Nc1cc(N(C)C)c2c(c1O)C(=O)C1=C(O)[C@]3(O)C(=O)C(C(N)=O)=C(O)[C@@H](N(C)C)[C@@H]3C[C@@H]1C2 [B, 9-(Acetylamino)-7-(dimethylamino)-6-demethyl-6-deoxytetracycline] | 0.12 µg/mL (≈ 0.233 µM) | 0.5 µg/mL (≈ 0.972 µM) | 64 µg/mL (≈ 124 µM) | >128 µg/mL | 0.12 µg/mL (≈ 0.233 µM) | 0.12 µg/mL (≈ 0.233 µM) | 2 µg/mL (≈ 3.89 µM) | ≦0.06 μg/ml | 4 µg/mL (≈ 7.77 µM) | 2 µg/mL (≈ 3.89 µM) | 0.12 µg/mL (≈ 0.233 µM) |  |  |  |  |  |  | 
2 | CN(C)c1cc(NS(=O)(=O)c2cccc([N+](=O)[O-])c2)c(O)c2c1CC1CC3C(N(C)C)C(O)=C(C(N)=O)C(=O)C3(O)C(O)=C1C2=O (stereo not drawn) [BB] | 0.12 µg/mL (≈ 0.182 µM) |  | 4 µg/mL (≈ 6.08 µM) | >32 µg/mL | 0.25 µg/mL (≈ 0.38 µM) | 0.06 µg/mL (≈ 0.0912 µM) | 2 µg/mL (≈ 3.04 µM) | 1 µg/mL (≈ 1.52 µM) | 4 µg/mL (≈ 6.08 µM) | 4 µg/mL (≈ 6.08 µM) |  | 4 µg/mL (≈ 6.08 µM) | 0.12 µg/mL (≈ 0.182 µM) | 0.5 µg/mL (≈ 0.76 µM) | 16 µg/mL (≈ 24.3 µM) | 2 µg/mL (≈ 3.04 µM) | 8 µg/mL (≈ 12.2 µM) | 
3 | CN(C)c1cc(NS(=O)(=O)c2ccccc2)c(O)c2c1CC1CC3C(N(C)C)C(O)=C(C(N)=O)C(=O)C3(O)C(O)=C1C2=O (stereo not drawn) [CC, 7-(Dimethylamino)-9-[(phenylsulfonyl)amino]-6-demethyl-6-deoxytetracycline] | 0.06 µg/mL (≈ 0.0979 µM) |  | 4 µg/mL (≈ 6.53 µM) | 16 µg/mL (≈ 26.1 µM) | 4 µg/mL (≈ 6.53 µM) | ≦0.015 μg/ml | 2 µg/mL (≈ 3.26 µM) | 0.03 µg/mL (≈ 0.049 µM) | 4 µg/mL (≈ 6.53 µM) | 8 µg/mL (≈ 13.1 µM) | 4 µg/mL (≈ 6.53 µM) | 4 µg/mL (≈ 6.53 µM) | 4 µg/mL (≈ 6.53 µM) | 0.06 µg/mL (≈ 0.0979 µM) | 16 µg/mL (≈ 26.1 µM) | 4 µg/mL (≈ 6.53 µM) | 4 µg/mL (≈ 6.53 µM) | 
4 | CCN(CC)c1cc(NC=O)c(O)c2c1C[C@H]1C[C@H]3[C@H](N(C)C)C(O)=C(C(N)=O)C(=O)[C@@]3(O)C(O)=C1C2=O.O=S(=O)(O)O.O=S(=O)(O)O [D, 7-(Diethylamino)-9-(formylamino)-6-demethyl-6-deoxytetracycline disulfate] | 0.12 µg/mL | 1 µg/mL | 4 µg/mL | >32 µg/mL | 0.03 µg/mL | ≦0.015 μg/ml | 0.5 µg/mL | 0.12 µg/mL | 2 µg/mL | 0.5 µg/mL | 0.25 µg/mL |  | 0.06 µg/mL | 0.12 µg/mL | 0.5 µg/mL | 0.5 µg/mL | 4 µg/mL | 
5 | CN(C)c1cc(NS(=O)(=O)c2cccs2)c(O)c2c1CC1CC3C(N(C)C)C(O)=C(C(N)=O)C(=O)C3(O)C(O)=C1C2=O (stereo not drawn) [DD, 7-(Dimethylamino)-9-[(2-thienylsulfonyl)amino)-6-demethyl-6-deoxytetracycline] | 0.25 µg/mL (≈ 0.404 µM) |  | 4 µg/mL (≈ 6.47 µM) | 32 µg/mL (≈ 51.7 µM) | 0.03 µg/mL (≈ 0.0485 µM) | 0.03 µg/mL (≈ 0.0485 µM) | 4 µg/mL (≈ 6.47 µM) | 0.5 µg/mL (≈ 0.808 µM) | 2 µg/mL (≈ 3.23 µM) | 8 µg/mL (≈ 12.9 µM) | 0.5 µg/mL (≈ 0.808 µM) | 2 µg/mL (≈ 3.23 µM) | 0.25 µg/mL (≈ 0.404 µM) | 0.25 µg/mL (≈ 0.404 µM) | 16 µg/mL (≈ 25.9 µM) | 1 µg/mL (≈ 1.62 µM) | 4 µg/mL (≈ 6.47 µM) | 
6 | CN(C)c1cc(NS(=O)(=O)c2ccc(Cl)cc2)c(O)c2c1CC1CC3C(N(C)C)C(O)=C(C(N)=O)C(=O)C3(O)C(O)=C1C2=O (stereo not drawn) [EE, 9-[[(4-Chlorophenyl)sulfonyl]amino)-7-(dimethylamino)-6-demethyl-6-deoxytetracycline] | 0.06 µg/mL (≈ 0.0927 µM) |  | 0.5 µg/mL (≈ 0.773 µM) | >32 µg/mL | 0.12 µg/mL (≈ 0.185 µM) | 0.03 µg/mL (≈ 0.0464 µM) | >32 µg/mL | 0.12 µg/mL (≈ 0.185 µM) | 1 µg/mL (≈ 1.55 µM) | >32 µg/mL | 0.12 µg/mL (≈ 0.185 µM) |  | 0.12 µg/mL (≈ 0.185 µM) | 0.12 µg/mL (≈ 0.185 µM) | >32 µg/mL | 0.25 µg/mL (≈ 0.386 µM) | 1 µg/mL (≈ 1.55 µM) | 
7 | CN(C)c1cc(NS(C)(=O)=O)c(O)c2c1CC1CC3C(N(C)C)C(O)=C(C(N)=O)C(=O)C3(O)C(O)=C1C2=O (stereo not drawn) [FF, 7-(Dimethylamino)-9-[(methylsulfonyl)amino]-6-demethyl-6-deoxytetracycline] | 0.06 µg/mL (≈ 0.109 µM) |  | 16 µg/mL (≈ 29.1 µM) | 8 µg/mL (≈ 14.5 µM) | 0.12 µg/mL (≈ 0.218 µM) | 0.03 µg/mL (≈ 0.0545 µM) | 2 µg/mL (≈ 3.63 µM) | 0.25 µg/mL (≈ 0.454 µM) | 8 µg/mL (≈ 14.5 µM) | 2 µg/mL (≈ 3.63 µM) | 0.25 µg/mL (≈ 0.454 µM) |  | 0.12 µg/mL (≈ 0.218 µM) | 0.06 µg/mL (≈ 0.109 µM) | 2 µg/mL (≈ 3.63 µM) | 0.25 µg/mL (≈ 0.454 µM) | 16 µg/mL (≈ 29.1 µM) | 
8 | COC(=O)Nc1cc(N(C)C)c2c(c1O)C(=O)C1=C(O)[C@]3(O)C(=O)C(C(N)=O)=C(O)[C@@H](N(C)C)C3CC1C2 (stereo partly drawn) [HH, [7S-(7α,10aα)]-[9-(Aminocarbonyl)-4,7-bis(dimethylamino)-5,5a,6,6a,7,10,10a,12-octahydro-1,8,10a,11-tetrahydroxy-10,12-dioxo-2-naphthacenyl]carbamic acid methyl ester] | 0.25 µg/mL (≈ 0.471 µM) | 2 µg/mL (≈ 3.77 µM) | 2 µg/mL (≈ 3.77 µM) | 16 µg/mL (≈ 30.2 µM) | 0.03 µg/mL (≈ 0.0565 µM) | ≦0.015 μg/ml | 2 µg/mL (≈ 3.77 µM) | 0.03 µg/mL (≈ 0.0565 µM) | 0.5 µg/mL (≈ 0.942 µM) |  | 0.25 µg/mL (≈ 0.471 µM) | 0.25 µg/mL (≈ 0.471 µM) | 0.03 µg/mL (≈ 0.0565 µM) | 0.25 µg/mL (≈ 0.471 µM) | 4 µg/mL (≈ 7.54 µM) | 1 µg/mL (≈ 1.88 µM) | 2 µg/mL (≈ 3.77 µM) | 4 µg/mL (≈ 7.54 µM)
9 | CN(C)CC(=O)Nc1cc(N(C)C)c2c(c1O)C(=O)C1=C(O)C3(O)C(=O)C(C(N)=O)=C(O)C(N(C)C)C3CC1C2.O=S(=O)(O)O (stereo not drawn) [II, 7-(Dimethylamino)-9-[[(dimethylamino)acetyl]amino]-6-demethyl-6-deoxytetracycline sulfate] | 0.03 µg/mL | 0.12 µg/mL | 1 µg/mL | 0.25 µg/mL | 0.12 µg/mL | 0.03 µg/mL | 0.12 µg/mL | 0.06 µg/mL | 0.06 µg/mL |  | 0.12 µg/mL | 0.25 µg/mL | 0.06 µg/mL | 0.06 µg/mL | 0.25 µg/mL | 0.25 µg/mL | 1 µg/mL | 0.12 µg/mL
